Patent US10905123B2, “Herbicidal compounds” (Syngenta Participations AG, priority 2015, dated 2021)

Key:
Type in all cases: in vivo
Details in all cases: Rate 1000 g/ha; evaluated after 13 days
[1] = tested on: Echinochloa crus-galli (ECHCG); assay: B1a pre-emergence herbicidal activity
Procedure: (§1) Seeds of a variety of test species were sown in standard soil in pots: Amaranthus retroflexus (AMARE), Setaria faberi (SETFA), Zea mays (ZEAMX), Abutilon threophrasti (ABUTH), Echinochloa crus-galli (ECHCG), Lolium perenne (LOLPE). After cultivation for one day (pre-emergence) under controlled conditions in a glasshouse (at 24/16° C., day/night; 14 hours light; 65% humidity), the plants were sprayed with an aqueous spray solution derived from the formulation of the technical active ingredient in acetone/water (50:50) solution containing 0.5% Tween 20 (polyoxyethelyene sorbitan monolaurate, CAS RN 9005-64-5). The test plants were then grown in a glasshouse under controlled conditions (at 24/16° C., day/night; 14 hours light; 65% humidity) and watered twice daily. After 13 days, the test was evaluated (5=total damage to plant; 0=no damage to plant). Results are shown below in Table 4

Setaria faberi (SETFA) [2] = assay: B1a pre-emergence herbicidal activity
Procedure: as §1

[3] = tested on: Abutilon threophrasti (ABUTH); assay: B1a pre-emergence herbicidal activity
Procedure: as §1

[4] = tested on: Amaranthus retroflexus (AMARE); assay: B1a pre-emergence herbicidal activity
Procedure: as §1

Lolium perenne (LOLPE) [5] = assay: B1a pre-emergence herbicidal activity
Procedure: as §1

Zea mays (ZEAMX) [6] = assay: B1a pre-emergence herbicidal activity
Procedure: as §1

[7] = tested on: Echinochloa crus-galli (ECHCG); assay: B2a post-emergence herbicidal activity
Procedure: (§2) Seeds of a variety of test species were sown in standard soil in pots: Amaranthus retroflexus (AMARE), Setaria faberi (SETFA), Zea mays (ZEAMX), Abutilon threophrasti (ABUTH), Echinochloa crus-galli (ECHCG), Lolium perenne (LOLPE). After 8 days cultivation (post-emergence) under controlled conditions in a glasshouse (at 24/16° C., day/night; 14 hours light; 65% humidity), the plants were sprayed with an aqueous spray solution derived from the formulation of the technical active ingredient in acetone/I water (50:50) solution containing 0.5% Tween 20 (polyoxyethelyene sorbitan monolaurate, CAS RN 9005-64-5). The test plants were then grown in a glasshouse under controlled conditions (at 24/16° C., day/night; 14 hours light; 65% humidity) and watered twice daily. After 13 days, the test was evaluated (5=total damage to plant; 0=no damage to plant).

Setaria faberi (SETFA) [8] = assay: B2a post-emergence herbicidal activity
Procedure: as §2

[9] = tested on: Abutilon threophrasti (ABUTH); assay: B2a post-emergence herbicidal activity
Procedure: as §2

[10] = tested on: Amaranthus retroflexus (AMARE); assay: B2a post-emergence herbicidal activity
Procedure: as §2

Lolium perenne (LOLPE) [11] = assay: B2a post-emergence herbicidal activity
Procedure: as §2

Zea mays (ZEAMX) [12] = assay: B2a post-emergence herbicidal activity
Procedure: as §2

[13] = tested on: Echinochloa crus-galli (ECHCG); assay: B2 post-emergence herbicidal activity
Procedure: as §2, with “Triticum aestivium (TRZAW), Oryza sativa (ORYSA), Avena fatua (AVEFA), Alopecurus myosuroides (ALOMY),” for “Amaranthus retroflexus (AMARE), Setaria faberi (SETFA), Zea mays (ZEAMX), Abutilon threophrasti (ABUTH),”, “acetone/water” for “acetone/I water”

[14] = tested on: Triticum aestivium (TRZAW); assay: B2 post-emergence herbicidal activity
Procedure: as §2, with “Triticum aestivium (TRZAW), Oryza sativa (ORYSA), Avena fatua (AVEFA), Alopecurus myosuroides (ALOMY),” for “Amaranthus retroflexus (AMARE), Setaria faberi (SETFA), Zea mays (ZEAMX), Abutilon threophrasti (ABUTH),”, “acetone/water” for “acetone/I water”

Lolium perenne (LOLPE) [15] = assay: B2 post-emergence herbicidal activity
Procedure: as §2, with “Triticum aestivium (TRZAW), Oryza sativa (ORYSA), Avena fatua (AVEFA), Alopecurus myosuroides (ALOMY),” for “Amaranthus retroflexus (AMARE), Setaria faberi (SETFA), Zea mays (ZEAMX), Abutilon threophrasti (ABUTH),”, “acetone/water” for “acetone/I water”

[16] = tested on: Alopecurus myosuroides (ALOMY); assay: B2 post-emergence herbicidal activity
Procedure: as §2, with “Triticum aestivium (TRZAW), Oryza sativa (ORYSA), Avena fatua (AVEFA), Alopecurus myosuroides (ALOMY),” for “Amaranthus retroflexus (AMARE), Setaria faberi (SETFA), Zea mays (ZEAMX), Abutilon threophrasti (ABUTH),”, “acetone/water” for “acetone/I water”

Avena fatua (AVEFA) [17] = assay: B2 post-emergence herbicidal activity
Procedure: as §2, with “Triticum aestivium (TRZAW), Oryza sativa (ORYSA), Avena fatua (AVEFA), Alopecurus myosuroides (ALOMY),” for “Amaranthus retroflexus (AMARE), Setaria faberi (SETFA), Zea mays (ZEAMX), Abutilon threophrasti (ABUTH),”, “acetone/water” for “acetone/I water”

Oryza sativa (ORYSA) [18] = assay: B2 post-emergence herbicidal activity
Procedure: as §2, with “Triticum aestivium (TRZAW), Oryza sativa (ORYSA), Avena fatua (AVEFA), Alopecurus myosuroides (ALOMY),” for “Amaranthus retroflexus (AMARE), Setaria faberi (SETFA), Zea mays (ZEAMX), Abutilon threophrasti (ABUTH),”, “acetone/water” for “acetone/I water”

[19] = tested on: Echinochloa crus-galli (ECHCG); assay: B1 pre-emergence herbicidal activity
Procedure: as §1, with “Triticum aestivium (TRZAW), Oryza sativa (ORYSA), Avena fatua (AVEFA), Alopecurus myosuroides (ALOMY),” for “Amaranthus retroflexus (AMARE), Setaria faberi (SETFA), Zea mays (ZEAMX), Abutilon threophrasti (ABUTH),”, “plant).” for “plant). Results are shown below in Table 4”

[20] = tested on: Triticum aestivium (TRZAW); assay: B1 pre-emergence herbicidal activity
Procedure: as §1, with “Triticum aestivium (TRZAW), Oryza sativa (ORYSA), Avena fatua (AVEFA), Alopecurus myosuroides (ALOMY),” for “Amaranthus retroflexus (AMARE), Setaria faberi (SETFA), Zea mays (ZEAMX), Abutilon threophrasti (ABUTH),”, “plant).” for “plant). Results are shown below in Table 4”

Lolium perenne (LOLPE) [21] = assay: B1 pre-emergence herbicidal activity
Procedure: as §1, with “Triticum aestivium (TRZAW), Oryza sativa (ORYSA), Avena fatua (AVEFA), Alopecurus myosuroides (ALOMY),” for “Amaranthus retroflexus (AMARE), Setaria faberi (SETFA), Zea mays (ZEAMX), Abutilon threophrasti (ABUTH),”, “plant).” for “plant). Results are shown below in Table 4”

[22] = tested on: Alopecurus myosuroides (ALOMY); assay: B1 pre-emergence herbicidal activity
Procedure: as §1, with “Triticum aestivium (TRZAW), Oryza sativa (ORYSA), Avena fatua (AVEFA), Alopecurus myosuroides (ALOMY),” for “Amaranthus retroflexus (AMARE), Setaria faberi (SETFA), Zea mays (ZEAMX), Abutilon threophrasti (ABUTH),”, “plant).” for “plant). Results are shown below in Table 4”

Avena fatua (AVEFA) [23] = assay: B1 pre-emergence herbicidal activity
Procedure: as §1, with “Triticum aestivium (TRZAW), Oryza sativa (ORYSA), Avena fatua (AVEFA), Alopecurus myosuroides (ALOMY),” for “Amaranthus retroflexus (AMARE), Setaria faberi (SETFA), Zea mays (ZEAMX), Abutilon threophrasti (ABUTH),”, “plant).” for “plant). Results are shown below in Table 4”

Oryza sativa (ORYSA) [24] = assay: B1 pre-emergence herbicidal activity
Procedure: as §1, with “Triticum aestivium (TRZAW), Oryza sativa (ORYSA), Avena fatua (AVEFA), Alopecurus myosuroides (ALOMY),” for “Amaranthus retroflexus (AMARE), Setaria faberi (SETFA), Zea mays (ZEAMX), Abutilon threophrasti (ABUTH),”, “plant).” for “plant). Results are shown below in Table 4”

| Structure (SMILES) | Control of ECHCG after pre-emergence application (damage score 0-5) [1] | Control of SETFA after pre-emergence application (damage score 0-5) (Setaria faberi (SETFA) [2]) | Control of ABUTH after pre-emergence application (damage score 0-5) [3] | Control of AMARE after pre-emergence application (damage score 0-5) [4] | Control of LOLPE after pre-emergence application (damage score 0-5) (Lolium perenne (LOLPE) [5]) | Control of ZEAMX after pre-emergence application (damage score 0-5) (Zea mays (ZEAMX) [6]) | Control of ECHCG after post-emergence application (damage score 0-5) [7] | Control of SETFA after post-emergence application (damage score 0-5) (Setaria faberi (SETFA) [8]) | Control of ABUTH after post-emergence application (damage score 0-5) [9] | Control of AMARE after post-emergence application (damage score 0-5) [10] | Control of LOLPE after post-emergence application (damage score 0-5) (Lolium perenne (LOLPE) [11]) | Control of ZEAMX after post-emergence application (damage score 0-5) (Zea mays (ZEAMX) [12]) | also measured |
| --- | --- | --- | --- | --- | --- | --- | --- | --- | --- | --- | --- | --- | --- |
| CCOC(=O)C(=O)N(C)c1cn(-c2cncnc2)nc1C(F)(F)F [Compound A43] | 0 | 0 | 0 | 0 | 0 | 0 | 1 | 1 | 2 | 1 | 0 | 2 | – |
| Cc1nn(-c2cncnc2)cc1N(C)C(=O)Nc1c(C)noc1C [Compound A45] | 0 | 0 | 0 | 0 | 0 | 0 | 0 | 0 | 0 | 0 | 0 | 0 | – |
| CCN(C(=O)OC(C)(C)C)c1cn(-c2cncnc2)nc1C(F)(F)F [Compound A56] | – | – | – | – | – | – | – | – | – | – | – | – | Control of ECHCG after post-emergence application (damage score 0-5) [13]: 1; Control of TRZAW after post-emergence application (damage score 0-5) [14]: 1; Control of LOLPE after post-emergence application (damage score 0-5) (Lolium perenne (LOLPE) [15]): 0; Control of ALOMY after post-emergence application (damage score 0-5) [16]: 1; Control of AVEFA after post-emergence application (damage score 0-5) (Avena fatua (AVEFA) [17]): 1; Control of ORYSA after post-emergence application (damage score 0-5) (Oryza sativa (ORYSA) [18]): 0; Control of ECHCG after pre-emergence application (damage score 0-5) [19]: 1; Control of TRZAW after pre-emergence application (damage score 0-5) [20]: 0; Control of LOLPE after pre-emergence application (damage score 0-5) (Lolium perenne (LOLPE) [21]): 0; Control of ALOMY after pre-emergence application (damage score 0-5) [22]: 0; Control of AVEFA after pre-emergence application (damage score 0-5) (Avena fatua (AVEFA) [23]): 0; Control of ORYSA after pre-emergence application (damage score 0-5) (Oryza sativa (ORYSA) [24]): 0 |
| CC(C)(C)OC(=O)Nc1cn(-c2cccnc2)nc1Cl [Compound A57] | 0 | 0 | 0 | 0 | 0 | 1 | 2 | 3 | 1 | 1 | 1 | 2 | – |
| CC(C)OC(=O)Nc1cc(-c2cncnc2)nn1C(F)F [Compound A58, isopropyl N-[2-(difluoromethyl)-5-pyrimidin-5-yl-pyrazol-3-yl]carbamate] | 1 | 2 | 0 | 0 | 0 | 0 | 1 | 3 | 0 | 0 | 1 | 1 | – |
| CC(C)OC(=O)N(C)c1cc(-c2cncnc2)nn1C(F)F [Compound A59, isopropyl N-[2-(difluoromethyl)-5-pyrimidin-5-yl-pyrazol-3-yl]-N-methyl-carbamate] | 2 | 3 | 0 | 0 | 0 | 2 | 1 | 3 | 0 | 0 | 0 | 2 | – |
| CN(C(=O)OC(C)(C)C)c1cn(-c2cccnc2)nc1Cl [Compound A60, tert-butyl N-[3-chloro-1-(3-pyridyl)pyrazol-4-yl]-N-methyl-carbamate] | 2 | 4 | 0 | 1 | 0 | 2 | 4 | 4 | 2 | 3 | 2 | 3 | – |
